What was measured:
Assay type in all cases: in vivo
[1] = system: Ryegrass, Italian (Italian ryegrass, Lolium multiflorum); assay: Test A1 postemergence, Ryegrass, Italian; settings: for Plant response rating, Ryegrass, Italian: Postemergence; for Ryegrass, Italian plant response rating: postemergence
Procedure, shortened: (§1)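 Pre: seeds in loam/sand blend, directed soil spray. Post: potted plants, same soil, 2–10 cm, 1–2 leaf stage. Chemicals in non-phytotoxic solvent + surfactant for both.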

[2] = system: wheat (Triticum aestivum); assay: Test A1 postemergence, wheat; settings: for Plant response rating, Wheat: Postemergence; for Wheat plant response rating: postemergence
Procedure, shortened: as §1

[3] = system: ragweed (common ragweed, Ambrosia artemisiifolia); assay: Test A1 preemergence, ragweed
Procedure, shortened: as §1

[4] = system: wheat (Triticum aestivum); assay: Test A1 preemergence, wheat
Procedure, shortened: as §1

[5] = 31 g ai/ha, 0 to 100 scale (0 no effect, 100 complete control), 10 days
[6] = 31 g ai/ha, 0 to 100 scale (0 no effect, 100 complete control)
[7] = 125 g ai/ha, 0 to 100 scale, 0 no effect, 100 complete control
[8] = 125 g ai/ha, 0 to 100 scale (0 no effect, 100 complete control), 10 days

Compound	Plant response rating, Ryegrass, Italian [1, 5]	Plant response rating, Ryegrass, Italian ([1]; 125 g ai/ha, 0 to 100 scale)	Plant response rating, Wheat [2, 5]	Plant response rating, Wheat ([2]; 125 g ai/ha, 0 to 100 scale)	Plant response rating, Ragweed [3, 6]	Plant response rating, Ragweed [3, 7]	Plant response rating, Wheat [4, 6]	Plant response rating, Wheat [4, 7]	Ryegrass, Italian plant response rating [1, 6]	Wheat plant response rating [2, 6]	Plant response rating, Ryegrass, Italian [1, 8]	Plant response rating, Wheat [2, 8]
CCOC(=O)N(c1cc(C(=O)N2CCSCC2)c(C)c(C)c1C)S(=O)(=O)C(F)(F)F [Compound 286]	0	0	0	20	0	10	0	30	–	–	–	–
CCOC(=O)N(c1cc(C(=O)N2C[C@@H](C)O[C@H](C)C2)c(C)c(C)c1C)S(=O)(=O)C(F)(F)F (relative stereo) [Compound 374]	–	50	–	50	0	70	0	30	0	20	–	–
Cc1cc(C)c(N(COC(=O)C(C)(C)C)S(=O)(=O)C(F)(F)F)cc1C1=NOC(C(C)C)C1 (centres unmarked) [Compound 383]	–	–	–	–	0	0	20	20	0	0	0	70
CCc1cc(C)c(N(COC(=O)C(C)(C)C)S(=O)(=O)C(F)(F)F)cc1C1=NOC2CCCC12 (centres unmarked) [Compound 378]	–	0	–	60	0	0	10	20	0	30	–	–
C#CCN(C)C(=O)c1cc(N(COC(=O)C(C)(C)C)S(=O)(=O)C(F)(F)F)c(C)c(C)c1C [Compound 371]	–	80	–	60	40	90	0	10	20	0	–	–
Cc1c(NS(=O)(=O)C(F)(F)F)cc(C(=O)N2CCC(C)CC2)c(C)c1C [Compound 366]	–	20	–	20	30	70	0	10	0	0	–	–
Cc1cc(C)c(C2=NOC(C(C)C)C2)cc1NS(=O)(=O)C(F)(F)F (centres unmarked) [Compound 381]	–	–	–	–	0	0	40	90	0	20	0	70

From patent US20230278972A1, “SUBSTITUTED HALOALKYL SULFONANILIDE HERBICIDES” (FMC Corporation, priority 2020, published 2023)
